Measurements from paper PMC6633970, “Acetylcholinesterases from Leaf-Cutting ant Atta sexdens: Purification, Characterization, and Capillary Reactors for On-Flow Assays” (Enzyme Research, 2019).

Key:
AsAChE-A [1] = tested on: T1, AsAChE-A; assay: LC-MS/MS quantification of choline, HILIC; type: biochemical, Atta sexdens; conditions: free enzyme; 15 mM ammonium acetate, pH 5.0 as printed; 5 min
T1 construct: gene ace 2; native, soluble, from worker heads
Excerpt: LC-MS/MS quantification of choline, HILIC on AsAChE-A

AsAChE-A [2] = tested on: T1, AsAChE-A; assay: Ellman assay, […] nm, Lineweaver-Burk; type: biochemical, Atta sexdens; conditions: free enzyme; Tris-HCl, optimal pH (9.5) and temperature (30 or 50 °C, which not told); iodide salt; partially purified native enzyme
AsAChE-B = biological target: T2, AsAChE-B (Atta sexdens, UniProt A0A2R2V0F5); assay: on-flow LC-MS/MS of choline with immobilized enzyme capillary reactor; type: biochemical; conditions: read-out: % inhibition at 0.1 mM
T2 construct: native, soluble, from worker heads

CC(=O)OCC[N+](C)(C)C [ACh, acetylcholine]
Km (AsAChE-A [1]): 40.7 ± 12.5 µM

CC(=O)SCC[N+](C)(C)C [ATCh, acetylthiocholine]
Km (AsAChE-A [2]): 39.1 ± 2.3 µM

Nc1c2c(nc3ccccc13)CCCC2 [tacrine]
inhibition at 100 µM (AsAChE-B): 16%
